The values below come from PMC12030534, “Population Pharmacokinetic Modeling of Total and Unbound Pamiparib in Glioblastoma Patients: Insights into Drug Disposition and Dosing Optimization” (Pharmaceutics, 2025).

Several values for one entry are separate records, joined by “and”; a condition that tells them apart may be missing. Identical values can stand only once. Like-named read-outs stand apart in the source and are kept apart here. Marks after values point to notes of the source that are not given here.

Broadly, the IC50 is the concentration needed to halve the response being measured. Broadly, the LogP is a log measure of how a compound divides between an organic and an aqueous phase.

For one series, the system named is SCLC PDX models. Further details: method as in PMID 29330466. To be noted: imaging, cited from earlier work.
A further series has as its system P-glycoprotein (P-gp). On the set-up: method as in PMID 32652442, PMID 39575553. The settings on record: cited from earlier work.
The test system of series [1] is PARP. Further details: method as in PMID 23118055. The settings on record: cited from earlier work.
For series [2], the system named is PARP. On the set-up: method as in PMID 33264017. To be noted: used as denominator of target engagement ratio; read-out: IC50 for PARP inhibition; cited from earlier work.
In another series the test system is ABCG2. Further details: method as in PMID 32652442, PMID 39575553. The settings on record: cited from earlier work.
For series [3] the following is noted: cited from earlier work.
Details of series [4]: method as in PMID 33876576. To be noted: cited from earlier work.
For series [5] the following is noted: cited from earlier work. This is another data set of the same source.
The nature of series [6]: Population PK model of total and unbound pamiparib plasma concentrations in glioblastoma patients (Monolix; bootstrap evaluation). To be noted: for fraction unbound: oral, 60 mg, read-out: θ4 (Fu); for IIV of CL/F / IIV of Ka / IIV of V/F: (% RSE). It is filed as in vivo, human. Further details: Ka_SD: unit not given here. Here is the method:
The total and unbound pamiparib plasma concentration data used in the population PK analysis were obtained from a phase 0/II study (ClinicalTrials.gov ID: NCT04614909), which enrolled 41 patients with newly diagnosed or recurrent glioblastoma. The protocols were approved by the Institutional Review Board of the Barrow Neurological Institute. Written informed consent was obtained from all participants.
The patients received oral pamiparib (60 mg twice daily) for three days before undergoing surgical tumor resection. Blood samples were collected at predose and at 0.5, 1, 2, 4, 7, and 24 h following the 9th oral dose. Plasma was separated from whole blood by centrifugation at 1000× g and 4 °C for 10 min and then stored at −80 °C until analysis. The total and unbound pamiparib concentrations in plasma samples were quantified using a validated liquid chromatography coupled with tandem mass spectrometry (LC-MS/MS) method.
The population PK model was developed in two steps: (1) basic (structural) model development and (2) covariate model development. All analyses were performed using the nonlinear mixed-effects modeling program MONOLIX version 2024R1 (Lixoft, Antony, France).
The structural model was developed to simultaneously characterize total and unbound pamiparib plasma concentration–time profiles following an oral administration of 9 doses (60 mg, twice daily) in individual glioblastoma patients. A one-compartment model with first-order absorption (without lag time) and first-order elimination was selected to describe the multiple-dose plasma concentration–time data. The primary PK parameters included apparent oral clearance (CL/F), apparent volume of distribution (V/F), absorption rate constant (Ka), and fraction of unbound drug in plasma (Fu). The relationship between total (Cp) and unbound (Cu) drug concentrations was incorporated into the model using the equation Cu = Cp × Fu. All concentration data were log-transformed to stabilize variance and improve model fitting. Population mean PK parameters, interindividual variability, and residual error were assessed in the population PK model. Interindividual variability was modeled using an exponential function, assuming log-normal distribution for all PK parameters.
Various residual error models, including constant, proportional, and combined error models, were evaluated. The combined model, incorporating both proportional and additive error components, was selected as the optimal error model (Equation (1)).(1) yi,j=fti,j,ψi+g(ti,j,ψi,ξ)εi,j Here, ψi is the parameter vector of the structural model f for individual i , and the residual error model is defined by the function g that depends on an additional parameter vector ξ . The residual errors εi,j are standardized Gaussian random variables with a mean of 0 and a standard deviation of 1. In this analysis, the combined error model was defined as g=a+bf^c , where the function g consists of a constant term, a, and a term proportional to the structural model f , with b as the proportionality constant. The parameter vector ξ includes a and b, while c is fixed at 1 by default.
Population mean PK parameters were estimated using the Stochastic Approximation Expectation–Maximization (SAEM) algorithm, a robust method for handling complex nonlinear mixed-effects models. Individual patients’ PK parameter estimates were obtained through post hoc Bayesian estimation, utilizing the conditional distributions derived from the Markov Chain Monte Carlo (MCMC) procedure.
The covariate model was developed using a stepwise approach to systematically identify and incorporate significant covariate effects. Initial screening for potential covariates was conducted using generalized additive modeling (GAM) with R version 4.4.1. The candidate covariates, listed in Table 1, were evaluated based on their relationship with Bayesian-estimated individual pharmacokinetic (PK) parameters from the structural model, including CL/F, V/F, Ka, and Fu. […]

The conditions of series [7]: human liver microsomes; cited from earlier work. For orientation: Liver microsomes are vesicles of endoplasmic reticulum, rich in cytochrome P450 enzymes.
Setting [8] is: total pamiparib, base model, 60 mg twice daily oral.
The mark [9] stands for this setting: total pamiparib, base model, population mean (% RSE).
[10] abbreviates: total pamiparib, bootstrap mean.
[11] abbreviates: total pamiparib, final covariate model.
The mark [12] stands for this setting: total pamiparib, final covariate model, population mean.
[13] abbreviates: total pamiparib, final covariate model, population mean (% RSE in Table 2).
Setting [14] is: unbound pamiparib, base model, population mean (% RSE).
[15] abbreviates: unbound pamiparib, bootstrap mean.
Where [16] appears, read: unbound pamiparib, final covariate model.
[17] abbreviates: unbound pamiparib, final covariate model, population mean.
[18] abbreviates: unbound pamiparib, final covariate model, population mean (% RSE in Table 2).

Turning to `O=C(c1cc(Cc2n[nH]c(=O)c3ccccc23)ccc1F)N1CCN(C(=O)C2CC2)CC1` [olaparib], the “dose for complete target engagement” value in the series on SCLC PDX models (~5-fold of ED50) is 15 mg/kg. The “dose for 50% target engagement (ED50)” value in the series on SCLC PDX models is 3.17 mg/kg.
For the compound `C[C@]12CCCN1CC1=NNC(=O)c3cc(F)cc4[nH]c2c1c34` [pamiparib], the “substrate of P-glycoprotein (P-gp) / ABCB1” value in the series on P-glycoprotein (P-gp) is on record as “not a substrate”. Besides, the PARP trapping potency result in the series with PARP [1] (compared with other PARP inhibitors) was “surpassing olaparib and rucaparib but slightly weaker than niraparib and much weaker than talazoparib”. Also, the IC50 with PARP [2] is ~1 nM and 1 nM. The “substrate of efflux transporter ABCG2” value with ABCG2 is recorded as “not a substrate”. The LogP in [3] was 2.03. In addition, the “fecal excretion, share of total radioactivity” value in series [4] (pamiparib and its metabolites) is recorded as about 27%. In series [4] (pamiparib and its metabolites), the “renal excretion, share of total radioactivity” value is listed as “approximately 58%”. In addition, the “unchanged pamiparib as share of total radioactivity in plasma” value in series [4] (patients with solid tumors) was 67%. Further, the “maximum tolerated dose in monotherapy” value in series [5] was 60 mg BID. In addition, the T1/2 in series [5] (first in-human study BGB-290-AU-002) is 13 h. For the same compound, the fraction unbound in [6] (human, plasma, total pamiparib, base model, population mean (% RSE)) worked out at 0.042; in [6] (human, plasma, total pamiparib, bootstrap mean) it was 0.041; in [6] (human, plasma, total pamiparib, final covariate model, population mean (% RSE in Table 2)), 0.041; in [6] (human, plasma, unbound pamiparib, base model, population mean (% RSE)), 0.042; in series [6] (human, plasma, unbound pamiparib, bootstrap mean), 0.041; in series [6] (human, plasma, unbound pamiparib, final covariate model, population mean (% RSE in Table 2)), 0.042. Further, the half-life in series [6] (human, plasma, glioblastoma patients, 60 mg twice daily oral, read-out: population mean elimination half-life (T1/2) (converted)) is about 12 h. Besides, the TV_CL/F in series [6] (setting [8]) is 2.73 L/h; in [6] (total pamiparib, final covariate model, at median age 60), 2.59 L/h and 2.59 ^‡ L/h; in series [6] (unbound pamiparib, base model) it was 65.0 L/h; in series [6] (unbound pamiparib, final covariate model, at median age 60), 62.5 ^‡ L/h. For the same compound, the TV_V/F in series [6] (setting [8]) is 44 L; in [6] (total pamiparib, final covariate model, at median PCC 111.5), 44 L and 44 ^† L; in [6] (unbound pamiparib, base model), 1017 L; in [6] (unbound pamiparib, final covariate model, at median PCC 111.5), 1060 ^† L. In addition, the TV_KA in [6] (total pamiparib, base model, 60 mg twice daily oral, glioblastoma patients) is 1.64 h⁻¹; in series [6] (total pamiparib, final covariate model, 60 mg twice daily oral), 1.58 h⁻¹; in series [6] (unbound pamiparib, base model, 60 mg twice daily oral), 1.55 h⁻¹; in [6] (setting [16]) it was 1.7 h⁻¹. Besides, the “IIV of CL/F” value is 53 (11) % in series [6] (total pamiparib, base model); 50% and 50 (11) % in series [6] (setting [11]); 54 (11) % in [6] (unbound pamiparib, base model); 52(11) % in series [6] (setting [16]). The “IIV of Ka” value in series [6] (total pamiparib, base model) is given as 397 (18) %; in series [6] (setting [11]), 410 (20) %; in series [6] (unbound pamiparib, base model) it was 612 (21) %; in series [6] (setting [16]), 380 (20) %. In addition, the “IIV of V/F” value is given as 53 (16) % in series [6] (total pamiparib, base model); 41 (17) % in [6] (setting [11]); 50 (17) % in series [6] (unbound pamiparib, base model); 41 (19) % in [6] (setting [16]). The TV_Fu is 0.042 in [6] (total pamiparib, base model, fraction unbound in plasma); 0.041 in series [6] (total pamiparib, final covariate model, fraction unbound in plasma); 0.042 in [6] (unbound pamiparib, base model); 0.042 in series [6] (setting [16]). The “θ1 (Ka)” value was 1.64 (42) h^−1 in series [6] (setting [9]); 1.71 h⁻¹ in series [6] (total pamiparib, bootstrap mean (500 replicates)); 1.58 (42) h^−1 and 1.58 h^−1 in series [6] (setting [13]); 1.55 (51) h^−1 in [6] (setting [14]); 1.86 h⁻¹ in series [6] (unbound pamiparib, bootstrap mean (500 replicates)); 1.7 (44) h^−1 and 1.7 h^−1 in [6] (setting [18]). In addition, the “θ2 (V/F)” value in [6] (setting [9]) was 44 (9.7) L; in series [6] (setting [10]), 17 L; in [6] (setting [13]), 15 (28) L and 15 L; in series [6] (setting [14]), 1017 (9.1) L; in series [6] (setting [15]), 441 L; in [6] (setting [18]), 402 (28) L and 402 L. The “θ3 (CL/F)” value is reported as 2.73 (8.0) L/h in series [6] (setting [9]) and 65.0 (8.2) L/h in series [6] (setting [14]). Moreover, the Fu_SD in series [6] (setting [10]) is 0.11; in series [6] (setting [12]) it was 0.12; in [6] (setting [15]), 0.11; in [6] (setting [17]), 0.11. The Ka_SD in series [6] (setting [10]) is on record as 1.6; in series [6] (setting [12]), 1.7; in [6] (setting [15]) it was 1.66; in [6] (setting [17]), 1.66. In addition, the V/F_SD in [6] (setting [10]) is listed as 0.35; in series [6] (setting [12]), 0.39; in series [6] (setting [15]) it was 0.35; in series [6] (setting [17]) it was 0.39. For the same compound, the “β1 (PCC)” value in [6] (setting [10]) is given as 0.0089; in [6] (setting [15]), 0.0083. Moreover, the “β2 (Age)” value in series [6] (setting [10]) is listed as −0.017; in series [6] (setting [15]) it was −0.016. Also, the intrinsic clearance entry in series [7] is reported as “low”.
Consider `Cn1ncnc1[C@H]1c2n[nH]c(=O)c3cc(F)cc(c23)N[C@@H]1c1ccc(F)cc1` [talazoparib], for which the “PARP trapping potency relative to olaparib” value in the series with PARP [1] was ~ 100 fold.
Turning to oxy-dehydro pamiparib [M3], the metabolite abundance result in [4] (human plasma, urine, and feces) was “most abundant metabolite”.
